# Experimental data reported in patent US12338237B2, “Derivatives having 1,2,3,4-tetrahydronaphthalene moiety or pharmaceutically acceptable salt thereof and pharmaceutical compositions comprising the same” (YUHAN CORPORATION, priority 2019, dated 2025).
# Like-named read-outs stand apart in the source and are kept apart here.
# Key:
# [1] = target: glucosylceramide synthase (GCS) (Homo sapiens (Human), UniProt Q16739); experiment: Evaluation of inhibitory activities against GCS (enzyme reaction with A549 cell lysate, NBD C6-ceramide, HPLC fluorescence); type: biochemical; conditions: GCS activity in A549 cell lysate, 37° C. for 90 minutes
# Summary of the method: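 Lysate of A549 cells in 50 mM HEPES pH 7.3 incubated with test compound and NBD C6-ceramide at 37 °C for 90 min; lipids extracted with chloroform/methanol and GlcCer and ceramide peaks quantified by HPLC fluorescence. Activity from GlcCer area fraction, normalised between DMSO and ibiglustat controls.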
# GM1 production = experiment: cells; type: cell-based
# Sequence of glucosylceramide synthase (GCS) (Q16739 whole entry, looked up): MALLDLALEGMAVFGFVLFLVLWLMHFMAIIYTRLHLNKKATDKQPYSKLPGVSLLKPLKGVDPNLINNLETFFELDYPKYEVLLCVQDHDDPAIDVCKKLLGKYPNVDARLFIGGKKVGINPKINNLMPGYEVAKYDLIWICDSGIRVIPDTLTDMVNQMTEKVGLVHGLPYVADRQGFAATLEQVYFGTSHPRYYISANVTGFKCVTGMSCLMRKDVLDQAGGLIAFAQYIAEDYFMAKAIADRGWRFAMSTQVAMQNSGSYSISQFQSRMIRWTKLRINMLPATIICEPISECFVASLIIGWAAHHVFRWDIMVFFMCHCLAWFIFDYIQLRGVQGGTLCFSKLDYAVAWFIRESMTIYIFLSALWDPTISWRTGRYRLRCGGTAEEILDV
smiles,measurement,setting,value
"COCCOc1cccc(-c2ccc3c(c2)CCC2(CC2)C3NC(=O)O[C@@H]2CN3CCC2CC3)c1 (stereo partly drawn) [Example 195, (S)-quinuclidin-3-yl (6′-(3-(2-methoxyethoxy)phenyl)-3′,4′-dihydro-1′H-spiro[cyclopropane-1,2′-naphthalen]-1′-yl)carbamate]",IC50,[1],0.00539 µM
same,IC50,"GM1 production; Homo sapiens, Jurkat, 72 h",0.0233 µM
"COCCOc1ccccc1-c1ccc2c(c1)CCC1(CC1)C2NC(=O)O[C@@H]1CN2CCC1CC2 (stereo partly drawn) [Example 196, (S)-quinuclidin-3-yl (6′-(2-(2-methoxyethoxy)phenyl)-3′,4′-dihydro-1′H-spiro[cyclopropane-1,2′-naphthalen]-1′-yl)carbamate]",IC50,[1],0.00602 µM
same,IC50,"GM1 production; Homo sapiens, Jurkat, 72 h",0.0252 µM
"COCOc1ccc(-c2ccc3c(c2)CCC2(CC2)C3NC(=O)O[C@@H]2CN3CCC2CC3)cc1 (stereo partly drawn) [Example 197, (S)-quinuclidin-3-yl (6′-(4-(methoxymethoxy)phenyl)-3′,4′-dihydro-1′H-spiro[cyclopropane-1,2′-naphthalen]-1′-yl)carbamate]",IC50,[1],0.00313 µM
same,IC50,"GM1 production; Homo sapiens, Jurkat, 72 h",0.0028 µM
"COCOc1cccc(-c2ccc3c(c2)CCC2(CC2)C3NC(=O)O[C@@H]2CN3CCC2CC3)c1 (stereo partly drawn) [Example 198, (S)-quinuclidin-3-yl (6′-(3-(methoxymethoxy)phenyl)-3′,4′-dihydro-1′H-spiro[cyclopropane-1,2′-naphthalen]-1′-yl)carbamate]",IC50,[1],0.00517 µM
same,IC50,"GM1 production; Homo sapiens, Jurkat, 72 h",0.00868 µM
"COCOc1ccccc1-c1ccc2c(c1)CCC1(CC1)C2NC(=O)O[C@@H]1CN2CCC1CC2 (stereo partly drawn) [Example 199, (S)-quinuclidin-3-yl (6′-(2-(methoxymethoxy)phenyl)-3′,4′-dihydro-1′H-spiro[cyclopropane-1,2′-naphthalen]-1′-yl)carbamate]",IC50,[1],0.00724 µM
same,IC50,"GM1 production; Homo sapiens, Jurkat, 72 h",0.00763 µM
"COc1ccc(-c2ccc3c(c2)CCC2(CC2)C3NC(=O)O[C@@H]2CN3CCC2CC3)c(Cl)c1 (stereo partly drawn) [Example 200, (S)-quinuclidin-3-yl (6′-(2-chloro-4-methoxyphenyl)-3′,4′-dihydro-1′H-spiro[cyclopropane-1,2′-naphthalen]-1′-yl)carbamate]",IC50,[1],0.00885 µM
same,IC50,"GM1 production; Homo sapiens, Jurkat, 72 h",0.046 µM
"COc1cc(-c2ccc3c(c2)CCC2(CC2)C3NC(=O)O[C@@H]2CN3CCC2CC3)ccc1Cl (stereo partly drawn) [Example 201, (S)-quinuclidin-3-yl (6′-(4-chloro-3-methoxyphenyl)-3′,4′-dihydro-1′H-spiro[cyclopropane-1,2′-naphthalen]-1′-yl)carbamate]",IC50,[1],0.0335 µM
same,IC50,"GM1 production; Homo sapiens, Jurkat, 72 h",0.111 µM
"COc1ccc(-c2ccc3c(c2)CCC2(CC2)C3NC(=O)O[C@@H]2CN3CCC2CC3)cc1F (stereo partly drawn) [Example 202, (S)-quinuclidin-3-yl (6′-(3-fluoro-4-methoxyphenyl)-3′,4′-dihydro-1′H-spiro[cyclopropane-1,2′-naphthalen]-1′-yl)carbamate]",IC50,[1],0.00116 µM
same,IC50,"GM1 production; Homo sapiens, Jurkat, 72 h",0.0244 µM
"CCc1cccc(-c2ccc3c(c2)CCC2(CC2)C3NC(=O)O[C@@H]2CN3CCC2CC3)c1 (stereo partly drawn) [Example 203, (S)-quinuclidin-3-yl (6′-(3-ethylphenyl)-3′,4′-dihydro-1′H-spiro[cyclopropane-1,2′-naphthalen]-1′-yl)carbamate]",IC50,[1],0.0135 µM
same,IC50,"GM1 production; Homo sapiens, Jurkat, 72 h",0.035 µM
"CC(C)(C)c1cccc(-c2ccc3c(c2)CCC2(CC2)C3NC(=O)O[C@@H]2CN3CCC2CC3)c1 (stereo partly drawn) [Example 204, (S)-quinuclidin-3-yl (6′-(3-(tert-butyl)phenyl)-3′,4′-dihydro-1′H-spiro[cyclopropane-1,2′-naphthalen]-1′-yl)carbamate]",IC50,[1],0.0384 µM
same,IC50,"GM1 production; Homo sapiens, Jurkat, 72 h",0.0929 µM
"CC(C)c1cccc(-c2ccc3c(c2)CCC2(CC2)C3NC(=O)O[C@@H]2CN3CCC2CC3)c1 (stereo partly drawn) [Example 205, (S)-quinuclidin-3-yl (6′-(3-isopropylphenyl)-3′,4′-dihydro-1′H-spiro[cyclopropane-1,2′-naphthalen]-1′-yl)carbamate]",IC50,[1],0.0342 µM
same,IC50,"GM1 production; Homo sapiens, Jurkat, 72 h",0.0443 µM
"O=C(NC1c2ccc(-c3cccc(C(F)F)c3)cc2CCC12CC2)O[C@@H]1CN2CCC1CC2 (stereo partly drawn) [Example 206, (S)-quinuclidin-3-yl (6′-(3-(difluoromethyl)phenyl)-3′,4′-dihydro-1′H-spiro[cyclopropane-1,2′-naphthalen]-1′-yl)carbamate]",IC50,[1],0.0102 µM
same,IC50,"GM1 production; Homo sapiens, Jurkat, 72 h",0.0152 µM
"CN(C)c1cccc(-c2ccc3c(c2)CCC2(CC2)C3NC(=O)O[C@@H]2CN3CCC2CC3)c1 (stereo partly drawn) [Example 207, (S)-quinuclidin-3-yl (6′-(3-(dimethylamino)phenyl)-3′,4′-dihydro-1′H-spiro[cyclopropane-1,2′-naphthalen]-1′-yl)carbamate]",IC50,[1],0.0232 µM
same,IC50,"GM1 production; Homo sapiens, Jurkat, 72 h",0.0573 µM
"CC(C)Oc1cccc(-c2ccc3c(c2)CCC2(CC2)C3NC(=O)O[C@@H]2CN3CCC2CC3)c1 (stereo partly drawn) [Example 208, (S)-quinuclidin-3-yl (6′-(3-isopropoxyphenyl)-3′,4′-dihydro-1′H-spiro[cyclopropane-1,2′-naphthalen]-1′-yl)carbamate]",IC50,[1],0.0212 µM
same,IC50,"GM1 production; Homo sapiens, Jurkat, 72 h",0.0477 µM
"COc1cccc(-c2ccc3c(c2)CCC2(CC2)C3NC(=O)O[C@@H]2CN3CCC2CC3)c1OC (stereo partly drawn) [Example 209, (S)-quinuclidin-3-yl (6′-(2,3-dimethoxyphenyl)-3′,4′-dihydro-1′H-spiro[cyclopropane-1,2′-naphthalen]-1′-yl)carbamate]",IC50,[1],0.0152 µM
same,IC50,"GM1 production; Homo sapiens, Jurkat, 72 h",0.047 µM
"COc1ccc(-c2ccc3c(c2)CCC2(CC2)C3NC(=O)O[C@@H]2CN3CCC2CC3)c(OC)c1 (stereo partly drawn) [Example 210, (S)-quinuclidin-3-yl (6′-(2,4-dimethoxyphenyl)-3′,4′-dihydro-1′H-spiro[cyclopropane-1,2′-naphthalen]-1′-yl)carbamate]",IC50,[1],0.0236 µM
same,IC50,"GM1 production; Homo sapiens, Jurkat, 72 h",0.0442 µM
"COc1ccc(OC)c(-c2ccc3c(c2)CCC2(CC2)C3NC(=O)O[C@@H]2CN3CCC2CC3)c1 (stereo partly drawn) [Example 211, (S)-quinuclidin-3-yl (6′-(2,5-dimethoxyphenyl)-3′,4′-dihydro-1′H-spiro[cyclopropane-1,2′-naphthalen]-1′-yl)carbamate]",IC50,[1],0.0276 µM
same,IC50,"GM1 production; Homo sapiens, Jurkat, 72 h",0.147 µM
"COc1cccc(OC)c1-c1ccc2c(c1)CCC1(CC1)C2NC(=O)O[C@@H]1CN2CCC1CC2 (stereo partly drawn) [Example 212, (S)-quinuclidin-3-yl (6′-(2,6-dimethoxyphenyl)-3′,4′-dihydro-1′H-spiro[cyclopropane-1,2′-naphthalen]-1′-yl)carbamate]",IC50,[1],0.104 µM
same,IC50,"GM1 production; Homo sapiens, Jurkat, 72 h",0.221 µM
"COc1ccc(-c2ccc3c(c2)CCC2(CC2)C3NC(=O)O[C@@H]2CN3CCC2CC3)cc1OC (stereo partly drawn) [Example 213, (S)-quinuclidin-3-yl (6′-(3,4-dimethoxyphenyl)-3′,4′-dihydro-1′H-spiro[cyclopropane-1,2′-naphthalen]-1′-yl)carbamate]",IC50,[1],0.0342 µM
same,IC50,"GM1 production; Homo sapiens, Jurkat, 72 h",0.145 µM
"COc1cc(OC)cc(-c2ccc3c(c2)CCC2(CC2)C3NC(=O)O[C@@H]2CN3CCC2CC3)c1 (stereo partly drawn) [Example 214, (S)-quinuclidin-3-yl (6′-(3,5-dimethoxyphenyl)-3′,4′-dihydro-1′H-spiro[cyclopropane-1,2′-naphthalen]-1′-yl)carbamate]",IC50,[1],0.0326 µM
same,IC50,"GM1 production; Homo sapiens, Jurkat, 72 h",0.0623 µM
"COc1ccc(-c2ccc3c(c2)CCC2(CC2)C3NC(=O)O[C@@H]2CN3CCC2CC3)cc1 (stereo partly drawn) [Example 215, (S)-quinuclidin-3-yl (6′-(4-methoxyphenyl)-3′,4′-dihydro-1′H-spiro[cyclopropane-1,2′-naphthalen]-1′-yl) carbamate]",IC50,[1],0.00235 µM
same,IC50,GM1 production; read-out: IC50,0.0573 µM
"COc1cccc(-c2ccc3c(c2)CCC2(CC2)C3NC(=O)O[C@@H]2CN3CCC2CC3)c1 (stereo partly drawn) [Example 216, (S)-quinuclidin-3-yl (6′-(3-methoxyphenyl)-3′,4′-dihydro-1′H-spiro[cyclopropane-1,2′-naphthalen]-1′-yl) carbamate]",IC50,[1],0.0122 µM
same,IC50,GM1 production; read-out: IC50,0.115 µM
"CCOc1ccc(-c2ccc3c(c2)CCC2(CC2)C3NC(=O)O[C@@H]2CN3CCC2CC3)cc1 (stereo partly drawn) [Example 217, (S)-quinuclidin-3-yl (6′-(4-ethoxyphenyl)-3′,4′-dihydro-1′H-spiro[cyclopropane-1,2′-naphthalen]-1′-yl)carbamate]",IC50,[1],0.00101 µM
same,IC50,"GM1 production; Homo sapiens, Jurkat, 72 h",0.0158 µM
"CCOc1cccc(-c2ccc3c(c2)CCC2(CC2)C3NC(=O)O[C@@H]2CN3CCC2CC3)c1 (stereo partly drawn) [Example 218, (S)-quinuclidin-3-yl (6′-(3-ethoxyphenyl)-3′,4′-dihydro-1′H-spiro[cyclopropane-1,2′-naphthalen]-1′-yl)carbamate]",IC50,[1],0.0198 µM
same,IC50,"GM1 production; Homo sapiens, Jurkat, 72 h",0.0633 µM
"CC(C)Oc1ccc(-c2ccc3c(c2)CCC2(CC2)C3NC(=O)O[C@@H]2CN3CCC2CC3)cc1 (stereo partly drawn) [Example 219, (S)-quinuclidin-3-yl (6′-(4-isopropoxyphenyl)-3′,4′-dihydro-1′H-spiro[cyclopropane-1,2′-naphthalen]-1′-yl)carbamate]",IC50,[1],0.0011 µM
same,IC50,"GM1 production; Homo sapiens, Jurkat, 72 h",0.016 µM
"CCCOc1ccc(-c2ccc3c(c2)CCC2(CC2)C3NC(=O)O[C@@H]2CN3CCC2CC3)cc1 (stereo partly drawn) [Example 220, (S)-quinuclidin-3-yl (6′-(4-propoxyphenyl)-3′,4′-dihydro-1′H-spiro[cyclopropane-1,2′-naphthalen]-1′-yl) carbamate]",IC50,[1],0.00063 µM
same,IC50,GM1 production; read-out: IC50,0.0067 µM
"CCc1ccc(-c2ccc3c(c2)CCC2(CC2)C3NC(=O)O[C@@H]2CN3CCC2CC3)cc1 (stereo partly drawn) [Example 221, (S)-quinuclidin-3-yl (6′-(4-ethylphenyl)-3′,4′-dihydro-1′H-spiro[cyclopropane-1,2′-naphthalen]-1′-yl)carbamate]",IC50,[1],0.00201 µM
same,IC50,"GM1 production; Homo sapiens, Jurkat, 72 h",0.0188 µM
"CCCc1ccc(-c2ccc3c(c2)CCC2(CC2)C3NC(=O)O[C@@H]2CN3CCC2CC3)cc1 (stereo partly drawn) [Example 222, (S)-quinuclidin-3-yl (6′-(4-propylphenyl)-3′,4′-dihydro-1′H-spiro[cyclopropane-1,2′-naphthalen]-1′-yl)carbamate]",IC50,[1],0.00075 µM
same,IC50,"GM1 production; Homo sapiens, Jurkat, 72 h",0.0093 µM
"CC(C)c1ccc(-c2ccc3c(c2)CCC2(CC2)C3NC(=O)O[C@@H]2CN3CCC2CC3)cc1 (stereo partly drawn) [Example 223, (S)-quinuclidin-3-yl (6′-(4-isopropylphenyl)-3′,4′-dihydro-1′H-spiro[cyclopropane-1,2′-naphthalen]-1′-yl)carbamate]",IC50,[1],0.0024 µM
same,IC50,"GM1 production; Homo sapiens, Jurkat, 72 h",0.0241 µM
